Experimental data from ChEMBL document CHEMBL1128729, “Alpha- and beta-adrenoceptors: from the gene to the clinic. 2. Structure-activity relationships and therapeutic applications” (J Med Chem, 1995).
pEC50, pKi: −log10 of the molar value.

Legend:
[1] = Activity for Alpha-1 adrenergic receptor was assessed from effect on contraction of reserpine-pretreated guinea pig ileum; type: functional, tissue-based
[2] = Activity for Alpha-1 adrenergic receptor was assessed from effect on inhibition of neurotransmission in field-stimulated, reserpine-pretreated guinea pig ileum.; type: functional, tissue-based
[3] = Effective dose for compound on contraction of reserpine-pretreated guinea pig aorta.; type: functional, tissue-based
[4] = Effective dose for on contraction of rabbit aorta.; type: functional, tissue-based
[5] = Effective concentration for inhibition of neurotransmission in field-stimulated, reserpine-pretreated guinea pig ileum.; type: functional, tissue-based
[6] = target: Beta-2 adrenergic receptor (Cavia porcellus, UniProt Q8K4Z4); assay: Activity for Beta-2 adrenergic receptor was assessed from effect on relaxation of guinea pig trachea.; type: functional
Chain of Beta-2 adrenergic receptor (Q8K4Z4 whole entry): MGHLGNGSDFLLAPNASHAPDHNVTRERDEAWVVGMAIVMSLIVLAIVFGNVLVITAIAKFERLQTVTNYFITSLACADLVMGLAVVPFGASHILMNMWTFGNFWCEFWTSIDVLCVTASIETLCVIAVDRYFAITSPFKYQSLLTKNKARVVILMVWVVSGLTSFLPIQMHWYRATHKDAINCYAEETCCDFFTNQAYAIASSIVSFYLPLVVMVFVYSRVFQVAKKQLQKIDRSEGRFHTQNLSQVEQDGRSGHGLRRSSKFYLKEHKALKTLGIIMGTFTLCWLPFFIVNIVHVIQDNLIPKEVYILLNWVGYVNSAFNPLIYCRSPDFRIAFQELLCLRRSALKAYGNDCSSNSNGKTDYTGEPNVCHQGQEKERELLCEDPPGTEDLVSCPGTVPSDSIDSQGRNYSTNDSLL

Nischarin = Nischarin (Homo sapiens, UniProt Q9Y2I1); assay: Binding affinity for imidazoline receptor I-1
Chain of Nischarin (Q9Y2I1 whole entry): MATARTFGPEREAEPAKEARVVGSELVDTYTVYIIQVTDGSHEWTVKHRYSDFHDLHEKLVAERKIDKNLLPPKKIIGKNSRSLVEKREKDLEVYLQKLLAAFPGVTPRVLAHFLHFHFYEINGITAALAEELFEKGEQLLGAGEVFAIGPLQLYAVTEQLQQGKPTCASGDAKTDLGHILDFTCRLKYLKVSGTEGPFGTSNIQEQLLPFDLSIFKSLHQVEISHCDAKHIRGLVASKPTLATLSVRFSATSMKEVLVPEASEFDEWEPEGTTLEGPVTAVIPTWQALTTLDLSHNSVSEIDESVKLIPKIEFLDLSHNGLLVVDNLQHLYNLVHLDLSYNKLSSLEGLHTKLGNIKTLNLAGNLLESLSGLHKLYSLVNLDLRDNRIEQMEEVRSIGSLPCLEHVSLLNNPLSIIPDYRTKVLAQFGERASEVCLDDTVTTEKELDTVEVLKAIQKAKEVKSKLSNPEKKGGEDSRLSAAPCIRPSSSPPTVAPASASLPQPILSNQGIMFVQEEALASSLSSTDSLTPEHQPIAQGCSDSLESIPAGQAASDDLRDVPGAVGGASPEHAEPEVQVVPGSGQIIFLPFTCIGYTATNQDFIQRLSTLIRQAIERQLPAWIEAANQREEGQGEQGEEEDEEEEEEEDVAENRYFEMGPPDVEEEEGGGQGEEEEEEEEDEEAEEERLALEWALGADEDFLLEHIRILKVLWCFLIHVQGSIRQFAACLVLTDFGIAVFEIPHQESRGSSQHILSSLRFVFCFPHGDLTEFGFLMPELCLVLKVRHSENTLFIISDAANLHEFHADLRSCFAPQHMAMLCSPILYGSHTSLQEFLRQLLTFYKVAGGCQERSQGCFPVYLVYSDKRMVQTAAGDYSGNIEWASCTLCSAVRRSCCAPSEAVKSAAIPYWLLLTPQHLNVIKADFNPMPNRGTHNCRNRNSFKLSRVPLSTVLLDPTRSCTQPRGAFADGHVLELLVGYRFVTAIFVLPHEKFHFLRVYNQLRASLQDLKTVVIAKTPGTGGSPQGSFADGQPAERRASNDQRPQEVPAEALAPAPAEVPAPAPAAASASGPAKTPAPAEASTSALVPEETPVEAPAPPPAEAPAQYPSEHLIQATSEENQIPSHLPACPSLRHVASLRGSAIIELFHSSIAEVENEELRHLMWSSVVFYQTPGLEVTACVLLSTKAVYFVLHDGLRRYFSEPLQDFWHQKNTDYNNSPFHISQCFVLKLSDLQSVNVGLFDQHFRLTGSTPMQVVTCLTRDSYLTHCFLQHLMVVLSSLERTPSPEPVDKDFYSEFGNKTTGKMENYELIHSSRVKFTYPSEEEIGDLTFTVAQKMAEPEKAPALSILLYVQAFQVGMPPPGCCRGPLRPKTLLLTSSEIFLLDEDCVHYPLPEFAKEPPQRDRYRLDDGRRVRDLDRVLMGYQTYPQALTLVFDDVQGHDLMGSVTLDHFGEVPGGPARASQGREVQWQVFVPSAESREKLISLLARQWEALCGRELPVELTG

Monoamine oxidase = target: T1, Monoamine oxidase (Homo sapiens, UniProt P21397+P27338); assay: Binding affinity for imidazoline receptor I-2; type: protein assay
T1 sequence (P21397 whole entry): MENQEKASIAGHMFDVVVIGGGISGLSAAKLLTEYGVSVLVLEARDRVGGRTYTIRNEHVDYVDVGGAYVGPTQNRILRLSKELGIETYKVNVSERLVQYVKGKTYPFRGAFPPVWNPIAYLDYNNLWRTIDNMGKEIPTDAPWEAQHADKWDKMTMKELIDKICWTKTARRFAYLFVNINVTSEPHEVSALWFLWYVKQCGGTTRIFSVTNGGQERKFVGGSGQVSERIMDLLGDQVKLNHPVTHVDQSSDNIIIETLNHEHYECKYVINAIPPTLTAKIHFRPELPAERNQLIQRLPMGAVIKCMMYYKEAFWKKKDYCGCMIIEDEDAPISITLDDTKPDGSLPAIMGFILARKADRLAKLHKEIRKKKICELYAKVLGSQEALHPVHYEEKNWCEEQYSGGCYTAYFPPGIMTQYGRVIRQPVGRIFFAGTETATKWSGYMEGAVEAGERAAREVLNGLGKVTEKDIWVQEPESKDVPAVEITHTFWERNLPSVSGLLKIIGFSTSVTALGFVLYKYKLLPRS
T1 sequence (P27338 whole entry): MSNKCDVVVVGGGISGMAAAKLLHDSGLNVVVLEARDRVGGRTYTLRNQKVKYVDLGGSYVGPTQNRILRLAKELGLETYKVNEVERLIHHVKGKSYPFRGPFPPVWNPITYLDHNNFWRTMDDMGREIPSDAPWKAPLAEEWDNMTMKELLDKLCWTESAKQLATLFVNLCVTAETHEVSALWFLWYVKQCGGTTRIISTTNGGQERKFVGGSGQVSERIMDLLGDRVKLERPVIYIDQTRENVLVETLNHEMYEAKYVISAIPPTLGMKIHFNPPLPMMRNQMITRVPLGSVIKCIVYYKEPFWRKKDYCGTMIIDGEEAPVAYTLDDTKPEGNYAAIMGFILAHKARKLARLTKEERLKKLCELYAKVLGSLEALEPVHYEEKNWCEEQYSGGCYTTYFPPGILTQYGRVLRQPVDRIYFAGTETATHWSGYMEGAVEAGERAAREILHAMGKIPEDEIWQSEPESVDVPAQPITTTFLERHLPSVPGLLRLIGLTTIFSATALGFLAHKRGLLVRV

[7] = target: T2, Adrenergic receptor alpha-1 (Rattus norvegicus, UniProt P15823+P23944+P43140); assay: Effective dose for contraction of reserpine-pretreated rat vas deferens.; type: functional
T2 sequence (P15823 whole entry): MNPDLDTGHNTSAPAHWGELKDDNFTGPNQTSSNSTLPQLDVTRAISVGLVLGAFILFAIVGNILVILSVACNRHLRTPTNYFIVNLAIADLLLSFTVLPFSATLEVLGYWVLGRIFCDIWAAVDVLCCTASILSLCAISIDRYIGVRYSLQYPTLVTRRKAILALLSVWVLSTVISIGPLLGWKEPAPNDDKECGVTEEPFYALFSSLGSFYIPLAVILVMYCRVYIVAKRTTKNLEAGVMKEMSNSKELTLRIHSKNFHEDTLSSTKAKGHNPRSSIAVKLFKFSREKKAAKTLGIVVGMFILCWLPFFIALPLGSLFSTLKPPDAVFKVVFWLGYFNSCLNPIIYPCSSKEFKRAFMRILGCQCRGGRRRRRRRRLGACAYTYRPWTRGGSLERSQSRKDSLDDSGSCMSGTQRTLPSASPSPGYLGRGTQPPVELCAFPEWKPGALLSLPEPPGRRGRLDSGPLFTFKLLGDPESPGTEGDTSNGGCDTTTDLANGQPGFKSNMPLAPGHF
T2 sequence (P23944 whole entry): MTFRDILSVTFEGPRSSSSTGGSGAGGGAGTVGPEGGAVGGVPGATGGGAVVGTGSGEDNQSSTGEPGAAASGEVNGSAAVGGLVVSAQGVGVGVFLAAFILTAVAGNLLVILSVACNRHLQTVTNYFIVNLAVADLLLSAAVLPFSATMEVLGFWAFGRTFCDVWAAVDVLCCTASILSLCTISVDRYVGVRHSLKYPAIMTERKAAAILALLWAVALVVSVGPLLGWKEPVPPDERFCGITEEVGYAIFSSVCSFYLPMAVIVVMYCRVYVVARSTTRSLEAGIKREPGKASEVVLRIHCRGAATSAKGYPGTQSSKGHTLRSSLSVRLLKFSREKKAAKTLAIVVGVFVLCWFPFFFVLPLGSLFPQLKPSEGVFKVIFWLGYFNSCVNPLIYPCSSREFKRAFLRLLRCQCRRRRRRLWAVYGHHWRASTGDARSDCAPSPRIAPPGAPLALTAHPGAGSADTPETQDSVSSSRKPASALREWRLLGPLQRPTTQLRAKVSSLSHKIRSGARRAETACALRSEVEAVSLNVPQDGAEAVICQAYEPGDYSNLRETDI
T2 sequence (P43140 whole entry): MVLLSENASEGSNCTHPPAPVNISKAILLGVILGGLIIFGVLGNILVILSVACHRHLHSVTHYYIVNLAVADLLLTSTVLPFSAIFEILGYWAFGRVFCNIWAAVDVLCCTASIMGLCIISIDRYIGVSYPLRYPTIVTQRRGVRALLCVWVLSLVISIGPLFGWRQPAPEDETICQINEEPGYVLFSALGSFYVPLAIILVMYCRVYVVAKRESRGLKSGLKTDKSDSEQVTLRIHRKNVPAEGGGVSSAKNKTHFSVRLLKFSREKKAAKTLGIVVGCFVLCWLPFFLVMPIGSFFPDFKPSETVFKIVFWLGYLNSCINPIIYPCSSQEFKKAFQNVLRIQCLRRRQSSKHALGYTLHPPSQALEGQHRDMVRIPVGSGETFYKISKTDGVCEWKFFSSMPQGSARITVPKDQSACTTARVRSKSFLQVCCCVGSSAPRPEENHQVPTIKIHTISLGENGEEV

[8] = Effective dose for inhibition of neurotransmission in field-stimulated, reserpine-pretreated guinea pig ileum.; type: functional, tissue-based
[9] = Effective dose for contraction of rabbit aorta.; type: functional, tissue-based
[10] = Effective dose for contraction of reserpine-pretreated guinea pig aorta.; type: functional, tissue-based

C[C@@H](N)[C@@H](O)c1ccc(O)c(O)c1
pEC50 [1]: 4.33
pEC50 [2]: 5.00

NCC(O)c1ccc(O)c(O)c1 (single isomer, unassigned) [NOREPINEPHRINE]
pEC50 [3]: 4.92
pEC50 [4]: 5.70
pEC50 [5]: 4.84
pEC50 [6]: 4.52

Clc1cccc(Cl)c1NC1=NCCN1 [CLONIDINE]
pKi (Nischarin): > 8.00
Ki (Monoamine oxidase): > 100 nM

C[C@H](N)[C@H](O)c1ccc(O)c(O)c1 [LEVONORDEFRIN]
EC50 [7]: 776 nM
pEC50 [5]: 7.72

NC[C@H](O)c1ccc(O)c(O)c1 [NOREPINEPHRINE]
pEC50 [8]: 7.52
pEC50 [9]: 8.18
pEC50 [6]: 6.67
pEC50 [10]: 6.95
